This passage reports residual activity results from ChEMBL document CHEMBL1152560, “Substituted 2-arylbenzothiazoles as kinase inhibitors: hit-to-lead optimization” (Bioorg Med Chem, 2009).

Assay [1] concerns the target Tyrosine-protein kinase Lck (Homo sapiens) (UniProt P06239). Put plainly: Residual activity of LCK at 0.1 uM by microplate scintillation counting.
For assay [2], the target named is T1, Ephrin type-A receptor 8 (Homo sapiens) (UniProt P29322).
T1 sequence (whole entry): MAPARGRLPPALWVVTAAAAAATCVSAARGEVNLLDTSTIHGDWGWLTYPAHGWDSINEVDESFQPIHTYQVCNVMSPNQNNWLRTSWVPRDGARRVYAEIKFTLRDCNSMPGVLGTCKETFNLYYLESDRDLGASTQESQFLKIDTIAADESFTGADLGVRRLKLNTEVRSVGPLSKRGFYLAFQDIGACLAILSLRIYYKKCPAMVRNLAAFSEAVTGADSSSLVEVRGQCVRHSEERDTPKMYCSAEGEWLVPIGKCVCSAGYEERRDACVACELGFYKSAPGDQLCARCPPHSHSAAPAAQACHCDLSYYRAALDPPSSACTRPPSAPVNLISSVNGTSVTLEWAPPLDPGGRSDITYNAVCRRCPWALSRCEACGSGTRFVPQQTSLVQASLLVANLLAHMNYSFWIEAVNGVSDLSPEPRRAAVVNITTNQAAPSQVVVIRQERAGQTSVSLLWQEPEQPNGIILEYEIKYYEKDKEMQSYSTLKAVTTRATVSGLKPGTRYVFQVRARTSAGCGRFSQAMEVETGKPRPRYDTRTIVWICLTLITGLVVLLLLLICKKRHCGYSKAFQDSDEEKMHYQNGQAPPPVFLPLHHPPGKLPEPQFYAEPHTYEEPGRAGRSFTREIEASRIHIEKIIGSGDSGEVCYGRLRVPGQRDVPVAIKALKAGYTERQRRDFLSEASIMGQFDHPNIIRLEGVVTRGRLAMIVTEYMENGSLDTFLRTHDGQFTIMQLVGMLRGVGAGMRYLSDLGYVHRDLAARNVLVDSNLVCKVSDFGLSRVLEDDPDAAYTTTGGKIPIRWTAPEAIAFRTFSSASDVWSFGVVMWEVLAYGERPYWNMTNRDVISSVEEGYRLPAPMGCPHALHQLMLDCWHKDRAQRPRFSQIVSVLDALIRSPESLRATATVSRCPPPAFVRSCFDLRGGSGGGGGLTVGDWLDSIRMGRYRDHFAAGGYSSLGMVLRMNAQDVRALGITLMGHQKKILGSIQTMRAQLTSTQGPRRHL
Description: Residual activity of EPHA8 at 0.1 uM by microplate scintillation counting.

Assay [3] deals with Ribosomal protein S6 kinase alpha-2 (Homo sapiens) (UniProt Q15349). Description: Residual activity of RPS6KA2 at 1 uM by microplate scintillation counting.
Sequence of Ribosomal protein S6 kinase alpha-2 (Homo sapiens) (Q15349 whole entry): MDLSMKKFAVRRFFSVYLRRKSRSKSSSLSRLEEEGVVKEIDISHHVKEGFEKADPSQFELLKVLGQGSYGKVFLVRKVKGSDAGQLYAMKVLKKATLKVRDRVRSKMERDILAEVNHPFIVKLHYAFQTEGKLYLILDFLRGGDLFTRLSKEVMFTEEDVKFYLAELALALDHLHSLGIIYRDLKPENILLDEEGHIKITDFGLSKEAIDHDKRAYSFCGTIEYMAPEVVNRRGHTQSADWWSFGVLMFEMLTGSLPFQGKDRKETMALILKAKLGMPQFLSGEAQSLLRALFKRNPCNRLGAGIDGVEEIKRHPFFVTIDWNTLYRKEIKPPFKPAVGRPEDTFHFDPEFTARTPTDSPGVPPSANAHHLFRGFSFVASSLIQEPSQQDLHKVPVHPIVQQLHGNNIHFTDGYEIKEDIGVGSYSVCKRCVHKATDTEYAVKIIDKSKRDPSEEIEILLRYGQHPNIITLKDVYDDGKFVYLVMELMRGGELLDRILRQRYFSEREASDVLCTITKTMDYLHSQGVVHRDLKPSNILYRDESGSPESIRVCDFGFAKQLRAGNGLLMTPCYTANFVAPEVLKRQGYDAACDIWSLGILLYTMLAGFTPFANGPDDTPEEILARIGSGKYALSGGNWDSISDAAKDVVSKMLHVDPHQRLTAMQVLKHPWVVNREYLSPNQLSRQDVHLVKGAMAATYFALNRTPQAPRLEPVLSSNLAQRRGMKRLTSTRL
In assay [4] the target is T2, cGMP-dependent protein kinase 1 (Homo sapiens) (UniProt Q13976).
T2 sequence (whole entry): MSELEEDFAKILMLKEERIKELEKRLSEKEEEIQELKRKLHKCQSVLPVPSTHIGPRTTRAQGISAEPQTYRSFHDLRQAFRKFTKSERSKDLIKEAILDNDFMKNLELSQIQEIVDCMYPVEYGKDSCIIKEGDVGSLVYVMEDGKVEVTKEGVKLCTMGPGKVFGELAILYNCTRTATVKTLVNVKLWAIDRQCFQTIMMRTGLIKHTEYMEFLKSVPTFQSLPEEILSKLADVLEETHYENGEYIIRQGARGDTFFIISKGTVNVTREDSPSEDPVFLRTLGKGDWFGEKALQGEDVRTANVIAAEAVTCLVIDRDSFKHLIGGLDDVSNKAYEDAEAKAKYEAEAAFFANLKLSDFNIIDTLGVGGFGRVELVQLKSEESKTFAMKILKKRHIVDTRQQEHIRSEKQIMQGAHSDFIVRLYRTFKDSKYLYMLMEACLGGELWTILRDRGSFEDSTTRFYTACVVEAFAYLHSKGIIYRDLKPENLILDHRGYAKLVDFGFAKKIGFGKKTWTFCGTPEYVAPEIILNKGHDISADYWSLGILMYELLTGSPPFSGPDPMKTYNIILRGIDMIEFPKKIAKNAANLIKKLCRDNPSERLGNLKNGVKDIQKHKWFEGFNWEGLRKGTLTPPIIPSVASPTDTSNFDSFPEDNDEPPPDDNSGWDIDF
Description: Residual activity of PRKG1 at 10 uM by microplate scintillation counting.

The target of assay [5] is Serine/threonine-protein kinase PAK 3 (Homo sapiens) (UniProt O75914). Put plainly: Residual activity of PAK3 at 1 uM by microplate scintillation counting.
Sequence of Serine/threonine-protein kinase PAK 3 (Homo sapiens) (O75914 whole entry, looked up): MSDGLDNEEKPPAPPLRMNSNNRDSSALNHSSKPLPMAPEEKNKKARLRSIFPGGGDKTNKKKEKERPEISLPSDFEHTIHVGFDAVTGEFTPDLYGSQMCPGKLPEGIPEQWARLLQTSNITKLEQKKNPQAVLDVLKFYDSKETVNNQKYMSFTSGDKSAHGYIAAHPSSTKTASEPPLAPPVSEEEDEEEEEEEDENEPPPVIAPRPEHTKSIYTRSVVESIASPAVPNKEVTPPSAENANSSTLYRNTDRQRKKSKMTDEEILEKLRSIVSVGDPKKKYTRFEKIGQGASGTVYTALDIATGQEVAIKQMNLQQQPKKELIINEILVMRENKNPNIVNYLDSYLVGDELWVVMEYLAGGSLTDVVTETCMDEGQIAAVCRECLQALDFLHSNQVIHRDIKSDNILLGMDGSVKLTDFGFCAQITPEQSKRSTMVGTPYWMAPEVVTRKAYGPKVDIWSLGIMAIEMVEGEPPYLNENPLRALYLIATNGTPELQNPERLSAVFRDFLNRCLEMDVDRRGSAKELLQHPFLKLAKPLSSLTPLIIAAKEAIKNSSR
In assay [6] the target is T3, Myotonin-protein kinase (Homo sapiens) (UniProt Q09013).
T3 sequence (whole entry): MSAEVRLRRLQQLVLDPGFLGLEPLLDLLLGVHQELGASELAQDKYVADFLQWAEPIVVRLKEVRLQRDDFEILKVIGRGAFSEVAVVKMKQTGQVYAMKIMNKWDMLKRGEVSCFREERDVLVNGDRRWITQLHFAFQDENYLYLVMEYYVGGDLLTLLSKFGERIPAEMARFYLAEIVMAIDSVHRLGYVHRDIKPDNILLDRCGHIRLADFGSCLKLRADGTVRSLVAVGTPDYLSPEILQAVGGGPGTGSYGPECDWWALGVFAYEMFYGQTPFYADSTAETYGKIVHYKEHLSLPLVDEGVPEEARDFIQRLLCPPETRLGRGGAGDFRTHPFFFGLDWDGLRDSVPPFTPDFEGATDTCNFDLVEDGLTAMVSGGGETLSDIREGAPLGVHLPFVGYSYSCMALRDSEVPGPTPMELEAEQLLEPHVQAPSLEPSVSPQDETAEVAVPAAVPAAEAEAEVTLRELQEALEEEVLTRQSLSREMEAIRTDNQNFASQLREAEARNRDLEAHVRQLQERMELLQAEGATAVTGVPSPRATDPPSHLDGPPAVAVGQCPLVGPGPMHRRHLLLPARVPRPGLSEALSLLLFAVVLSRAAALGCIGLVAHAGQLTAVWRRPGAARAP
Description: Residual activity of DMPK at 10 uM by microplate scintillation counting.

Assay [7] deals with Tyrosine-protein kinase BTK (Homo sapiens) (UniProt Q06187). Description: Residual activity of BTK at 0.1 uM by microplate scintillation counting.
Sequence of Tyrosine-protein kinase BTK (Homo sapiens) (Q06187 whole entry): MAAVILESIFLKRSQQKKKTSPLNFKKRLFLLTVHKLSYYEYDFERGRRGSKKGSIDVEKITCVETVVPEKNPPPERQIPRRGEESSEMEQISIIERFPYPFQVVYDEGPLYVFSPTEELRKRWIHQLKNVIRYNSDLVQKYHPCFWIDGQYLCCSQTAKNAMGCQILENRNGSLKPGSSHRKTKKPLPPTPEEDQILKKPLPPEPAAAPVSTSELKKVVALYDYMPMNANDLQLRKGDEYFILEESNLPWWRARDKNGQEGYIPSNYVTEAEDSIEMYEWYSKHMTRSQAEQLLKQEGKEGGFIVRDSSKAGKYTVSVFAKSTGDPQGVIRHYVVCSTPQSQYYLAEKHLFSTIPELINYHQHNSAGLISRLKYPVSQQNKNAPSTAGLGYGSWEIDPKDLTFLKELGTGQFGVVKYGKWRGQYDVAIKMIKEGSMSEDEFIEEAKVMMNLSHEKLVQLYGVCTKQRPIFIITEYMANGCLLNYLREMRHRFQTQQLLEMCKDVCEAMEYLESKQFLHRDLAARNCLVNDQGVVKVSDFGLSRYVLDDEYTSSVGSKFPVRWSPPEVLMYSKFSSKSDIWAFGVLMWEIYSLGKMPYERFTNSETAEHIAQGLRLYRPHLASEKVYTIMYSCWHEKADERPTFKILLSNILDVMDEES
In assay [8] the target is Rho-associated protein kinase 2 (Homo sapiens) (UniProt O75116). Put plainly: Residual activity of ROCK2 at 0.1 uM by microplate scintillation counting.
Sequence of Rho-associated protein kinase 2 (Homo sapiens) (O75116 whole entry, looked up): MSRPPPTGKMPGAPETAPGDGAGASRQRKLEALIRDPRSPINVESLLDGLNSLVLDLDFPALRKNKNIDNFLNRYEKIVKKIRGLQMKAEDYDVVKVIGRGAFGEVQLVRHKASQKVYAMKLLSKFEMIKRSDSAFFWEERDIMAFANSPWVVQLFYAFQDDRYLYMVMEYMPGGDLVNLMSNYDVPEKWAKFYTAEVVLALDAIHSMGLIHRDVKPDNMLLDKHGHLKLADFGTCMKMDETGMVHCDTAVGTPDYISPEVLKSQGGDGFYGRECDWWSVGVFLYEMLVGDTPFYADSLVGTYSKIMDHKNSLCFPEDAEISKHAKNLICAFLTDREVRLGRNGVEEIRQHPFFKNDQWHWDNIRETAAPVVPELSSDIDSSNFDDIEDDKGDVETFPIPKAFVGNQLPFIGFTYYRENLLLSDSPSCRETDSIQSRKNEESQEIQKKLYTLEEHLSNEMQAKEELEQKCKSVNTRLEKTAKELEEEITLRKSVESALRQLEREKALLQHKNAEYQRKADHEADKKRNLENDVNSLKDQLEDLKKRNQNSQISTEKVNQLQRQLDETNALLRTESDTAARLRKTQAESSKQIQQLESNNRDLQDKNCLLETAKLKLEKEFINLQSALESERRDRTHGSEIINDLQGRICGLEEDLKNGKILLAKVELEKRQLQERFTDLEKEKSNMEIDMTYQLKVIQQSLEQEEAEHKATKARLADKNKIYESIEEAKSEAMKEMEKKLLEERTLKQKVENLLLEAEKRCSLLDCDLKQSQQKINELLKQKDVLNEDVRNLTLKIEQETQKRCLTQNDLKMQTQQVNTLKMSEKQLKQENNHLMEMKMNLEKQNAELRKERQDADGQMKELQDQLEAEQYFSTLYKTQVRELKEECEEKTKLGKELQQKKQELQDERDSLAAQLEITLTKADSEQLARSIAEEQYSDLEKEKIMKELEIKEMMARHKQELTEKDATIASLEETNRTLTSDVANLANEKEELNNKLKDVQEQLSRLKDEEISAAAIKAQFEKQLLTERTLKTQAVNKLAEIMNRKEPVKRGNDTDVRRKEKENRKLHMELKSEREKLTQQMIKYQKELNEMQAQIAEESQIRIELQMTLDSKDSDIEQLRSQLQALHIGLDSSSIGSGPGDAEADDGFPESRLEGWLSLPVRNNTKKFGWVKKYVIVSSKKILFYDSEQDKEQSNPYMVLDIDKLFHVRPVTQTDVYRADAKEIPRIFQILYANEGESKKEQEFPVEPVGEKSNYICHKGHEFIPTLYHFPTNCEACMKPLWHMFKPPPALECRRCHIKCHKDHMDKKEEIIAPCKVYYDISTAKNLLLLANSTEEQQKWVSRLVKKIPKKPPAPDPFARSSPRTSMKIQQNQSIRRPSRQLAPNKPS

Sequence of Tyrosine-protein kinase Lck (Homo sapiens) (P06239 2-509 limits assumed): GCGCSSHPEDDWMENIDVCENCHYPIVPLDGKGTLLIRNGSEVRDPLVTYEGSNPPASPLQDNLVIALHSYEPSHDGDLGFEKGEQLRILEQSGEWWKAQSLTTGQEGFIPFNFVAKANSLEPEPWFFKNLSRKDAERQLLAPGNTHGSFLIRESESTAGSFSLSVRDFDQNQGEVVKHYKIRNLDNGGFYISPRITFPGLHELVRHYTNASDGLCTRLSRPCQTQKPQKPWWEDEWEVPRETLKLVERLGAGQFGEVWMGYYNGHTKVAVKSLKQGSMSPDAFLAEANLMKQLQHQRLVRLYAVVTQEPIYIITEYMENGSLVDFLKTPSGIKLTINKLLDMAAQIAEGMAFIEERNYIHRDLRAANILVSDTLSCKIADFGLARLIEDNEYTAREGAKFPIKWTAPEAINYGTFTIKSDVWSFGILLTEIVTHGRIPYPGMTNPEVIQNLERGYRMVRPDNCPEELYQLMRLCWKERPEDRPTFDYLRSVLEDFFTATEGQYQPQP

A word on the residual activity: it is the signal under treatment as a percentage of the control signal. Consider `COc1cc2c(Oc3ccc(-c4nc5ccccc5s4)cc3)ncnc2cc1OCCCN1CCCC1`, for which the residual activity in assay [1] is 104%; in assay [2] it was 108%; in assay [3], 99%; in assay [4], 57%; in assay [5] it was 101%; in assay [6], 118%. Further, the residual activity in assay [7] was 106%; in assay [8], 119%.
Take `COc1cc2c(Oc3ccc(-c4nc5ccccc5s4)cc3F)ncnc2cc1OCCCN1CCN(C)CC1`: the residual activity in assay [1] was determined as 86%; in assay [2], 101%; in assay [3] it was 99%; in assay [4], 38%; in assay [5], 95%; in assay [6], 166%. The residual activity in assay [7] is 101%; in assay [8], 82%.
As to `COc1cc2c(Oc3ccc(-c4nc5ccccc5s4)cc3)ncnc2cc1OCCCN1CCN(C)CC1`, the residual activity in assay [1] amounted to 92%; in assay [2], 109%; in assay [3], 88%; in assay [4], 50%; in assay [5] it was 85%; in assay [6] it was 88%. The results for the residual activity in assay [7] and in assay [8] were 100% and 98%, respectively.
